In US4980349A, “Sulphonamides derived from diarylmethanes, the processes for preparing them and pharmaceutical compositions containing them” (SANOFI, priority 1986, dated 1990):
Like-named read-outs stand apart in the source and are kept apart here.

Legend:
[1] = system: pain threshold of brewer's yeast inflamed rat hind foot; experiment: Randall and Sellitto's test (analgesic activity); assay type: in vivo; details: first experiment, Table XII, read-out: percentage increase in the mean pain threshold; for change in vivo at 25 mg/kg: 25 mg/kg oral; for change in vivo at 50 mg/kg: 50 mg/kg oral; for change in vivo at 100 mg/kg: 100 mg/kg oral
Method: Inflammation increases the sensitivity to pain, in particular to pressure, and analgesics raise the threshold of the sensitivity.
The inflammation is obtained by injecting 0.1 ml of a 20% strength aqueous suspension of brewer's yeast under the plantar aponeurosis of one of the hind feet. […] The pain threshold is assessed in terms of the force necessary and sufficient to initiate a characteristic reaction of withdrawing the foot.
The sensitivity to pain of the inflamed foot reaches a plateau 4 hours after the injection of the brewer's yeast, and then remains stable until the 6th hour. The pain threshold of the inflamed foot in control rats weighing 140 g is reached for pressures of 50 to 60 g, whereas it is around 160 g for the intact foot.
The action of the substance administered orally to series of 10 rats is expressed in terms of the percentage increase in the mean pain threshold, compared with that measured in the rats of a control series of 10 animals which have not received a compound of the invention.
The test products are administered orally (stomach tube) one hour before the injection of brewer's yeast.
The comparative compound used is ketoprofen.

[2] = system: rat hind foot kaolin-induced oedema; experiment: Kaolin-induced arthritis test, first experiment (decrease in inflammation, foot volume); assay type: in vivo; details: 1 h before kaolin, Table IX, read-out: percentage decrease in the inflammation; for change in vivo at 25 mg/kg: 25 mg/kg oral; for change in vivo at 50 mg/kg: 50 mg/kg oral; for change in vivo at 100 mg/kg: 100 mg/kg oral
Method: The […] of 0.05 ml of a sterile 10% strength suspension of kaolin into the metatarsal flexor sheath of the hind foot of a rat initially induces an oedematous reaction. An inflammatory arthritis then forms.
The early oedematous reaction appears from the first hour, and reaches its maximum between the fourth hour and the sixth hour. This is the manifestation of interest. The assessment of the volume of the foot enables the action of substances on the oedematous reaction to be studied. The measurements are carried out using a Giono and Chevilard plethysmometer.
The test products are administered orally (stomach tube) one hour before the injection of the kaolin.
The results are expressed as a percentage decrease in the inflammation in the treated animals compared with a control series of animals.
The batches are of 10 animals per dose and 10 control animals.
The figures shown represent the mean of 10 animals.

[3] = system: biosynthesis of leukotrienes B4 (LTB4), human polymorphonuclear leukocytes; experiment: Biosynthesis of LTB4, isomers and oxidized metabolites in human polymorphonuclear leukocytes; assay type: cell-based; details: Leukocyte
Method: Polymorphonuclear leukocytes are isolated from human blood and used during the 6 hours following the withdrawal. The viability of the cells is checked by trypan blue exclusion.
5×10^6 cells are incubated for 10 minutes at 37° C. in the presence of the test product dissolved in DMSO, and are stimulated with ionophore A 23187 (Galbiochem, 10 μM) in PBS buffer at pH 7.4, Ca^2+ and Mg^2+ =1 μM.
100 ng of prostaglandin B2 (PGB2), dissolved in methanol, are added at the end of the reaction to act as an internal standard.
On centrifugation, the culture supernatant is withdrawn. The latter is retrieved under argon and stored at -80° C. until analysed by HPLC.
This analysis is carried out by injecting 250 μl onto a 5 μm ODS ultrasphere column (Beckmann), with a gradient of acetonitrile (20-80%) in water, at pH 7.4.
The amounts of the different products which absorb at 269 nm, i.e. leukotrienes B4 (LTB4), isomers of LTB4 and oxidized metabolites of LTB4, are estimated by comparison with the internal standard.
The test product is used at a concentration of 40 μM.
They are expressed either as a percentage inhibition, or as a percentage increase in the production of LTB4, isomers of LTB4 and oxidized metabolites of LTB4 (designated by +).
The experimental model is the same as that described in Section 2.1. Other products are tested by comparison with the compound of the invention no. 1574, used as a control.

[4] = system: rat hind foot carragheenin-induced oedema; experiment: Carragheenin-induced oedema test; assay type: in vivo; details: 3 h, first experiment, Table X, read-out: percentage inhibition of the inflammation; for change in vivo at 25 mg/kg: 25 mg/kg oral; for change in vivo at 50 mg/kg: 50 mg/kg oral; for change in vivo at 100 mg/kg: 100 mg/kg oral
Method: In this test, 10 rats are used per test compound of the invention. Control batches of 10 rats also receive either the comparative compound (ketoprofen) or exclusively an NaCl solution.
The compounds of the invention are administered orally (stomach tube) one hour before the injection of carragheenin.
The carragheenin is suspended at a concentration of 1% in a 0.9% isotonic sodium chloride solution. The volume injected into the rat's foot is 0.20 ml.
The volume of the foot is measured before the injection and 3 hours later. The antagonistic effect of the products towards carragheenin is reflected in the inhibition of the volume of the oedema compared with control rats. The latter receive only isotonic NaCl solution under identical conditions.

[5] = first experiment, read-out: Isomers of LTB4: percentage inhibition (+ : percentage increase in the production)
[6] = first experiment, read-out: LTB4: percentage inhibition (+ : percentage increase in the production)
[7] = first experiment, read-out: Oxidized metabolites of LTB4: percentage inhibition (+ : percentage increase in the production)
[8] = second experiment, read-out: Percentage inhibition of LTB4 formation

SMILES	change in vivo at 25 mg/kg [1]	change in vivo at 50 mg/kg [1]	change in vivo at 100 mg/kg [1]	change in vivo at 25 mg/kg [2]	change in vivo at 50 mg/kg [2]	change in vivo at 100 mg/kg [2]	inhibition at 40 µM [3, 5]	inhibition at 40 µM [3, 6]	inhibition at 40 µM [3, 7]	change in vivo at 25 mg/kg [4]	change in vivo at 50 mg/kg [4]	change in vivo at 100 mg/kg [4]	inhibition at 40 µM [3, 8]
O=C(c1ccccc1)c1cc(Cl)ccc1S(=O)(=O)NCCCN1CCOCC1 [Compound 1344, 2-benzoyl-4-chloro-N-(3-morpholinopropyl)benzenesulphonamide]	18%	18%	25%	-10%	-15%	-18%							
O=C(O)CCCCCCCCCCNS(=O)(=O)c1ccc([N+](=O)[O-])cc1C(=O)c1ccccc1 [Compound 1571]	25%	32%	36%	-17%	-26%	-50%	53%	60%	70%	-23%	-27%	-48%	
O=C(c1ccccc1)c1cc(Cl)ccc1S(=O)(=O)NCCN1CCOCC1 [Compound 1343]	10%	12%	12%							-7%	-8%	-8%	
O=C(O)CCCCCCCNS(=O)(=O)c1ccc(Cl)cc1C(=O)c1ccccc1Cl [Compound 1743]													20%
O=C(O)CCCCCCCCCCNS(=O)(=O)c1ccc(Cl)c(C(=O)c2ccccc2)c1 [Compound 1737, 11-(3-benzoyl-4-chlorobenzenesulphonamido)undecanoic acid]													95%
O=C(O)CCCCCCCCCCNS(=O)(=O)c1ccc(C(=O)c2ccccc2)cc1 [Compound 1686]	35%	50%	50%	-50%	-50%	-50%	5%	0%	25%	-50%	-50%	-55%	
O=C(O)CCCNS(=O)(=O)c1ccc(Cl)cc1C(=O)c1ccccc1 [Compound 1567]	12%	15%	20%	-12%	-15%	-20%				-8%	-10%	-10%	
O=C(O)CCCCCCCCCCCNS(=O)(=O)c1cccc(C(=O)c2ccccc2)c1 [Compound 1685]							70%	50%	70%				
O=C(O)CCCCCCCCCCNS(=O)(=O)c1cccc(C(=O)c2cc(S(=O)(=O)NCCCCCCCCCCC(=O)O)ccc2Cl)c1 [Compound 1688]	25%	32%	50%	-25%	-28%	-48%	-35%	35%	20%	-25%	-32%	-50%	
